Columns and labels:
AMPA nonspecific = assay: radioligand binding assay, cerebral cortex membranes, [3H]AMPA; conditions: AMPA nonspec, rat; 100 μM
Method: Nonspecific AMPA, kainate and NMDA binding assays were performed by Eurofins Discovery (Cerep) using rat cerebral cortex membranes and radiolabeled [^3H]AMPA, [^3H]kainic acid and [^3H]CGP 39653, respectively. All compounds were tested at a single concentration of 100 uM in triplicate. mGluR1, mGluR2, mGluR5 and GABAB binding assays were performed by Eurofins Discovery. mGluR1 assay was performed using rat cerebellum membranes and radiolabeled [^3H]quisqalic acid. mGluR2 assay was performed using recombinant Chem-1 cells and [^3H]LY341495. mGluR5 and GABAB binding assays were performed using recombinant CHO-K1 cells and […], respectively. All compounds were tested at a single concentration of 100 uM in triplicate.
All receptor assays were performed exactly as described in Example 1. Functional assays of all GABAA, NMDA (GluN2A-GluN2D) and AMPA (GluA2) receptor subunits were performed by SB Drug Discovery as a part of their CNS discovery panel using FLIPR technology. All compounds were tested at 7 concentrations in triplicate and EC50/IC50 was determined where applicable. Functional GABAB assay was performed by Eurofins Discovery (Cerep) using Ca^2+-dependent fluorimetry in RBL cells expressing human GABAB (B1/B2) receptor. All compounds were tested at a single concentration of 100 uM in triplicate. […]

GABAA α2β3γ2 = target: T1, GABAA α2β3γ2 (Homo sapiens, UniProt P18507+P28472+P47869); assay: FLIPR functional assay, HEK 293 cells (agonist/PAM/antagonist); format: cell-based; conditions: top concentration 1 mM, read-out: EC50, functional agonist receptor assay
T1 construct: host or cells: HEK 293 (stably expressing)
T1 sequence (P47869 29-451): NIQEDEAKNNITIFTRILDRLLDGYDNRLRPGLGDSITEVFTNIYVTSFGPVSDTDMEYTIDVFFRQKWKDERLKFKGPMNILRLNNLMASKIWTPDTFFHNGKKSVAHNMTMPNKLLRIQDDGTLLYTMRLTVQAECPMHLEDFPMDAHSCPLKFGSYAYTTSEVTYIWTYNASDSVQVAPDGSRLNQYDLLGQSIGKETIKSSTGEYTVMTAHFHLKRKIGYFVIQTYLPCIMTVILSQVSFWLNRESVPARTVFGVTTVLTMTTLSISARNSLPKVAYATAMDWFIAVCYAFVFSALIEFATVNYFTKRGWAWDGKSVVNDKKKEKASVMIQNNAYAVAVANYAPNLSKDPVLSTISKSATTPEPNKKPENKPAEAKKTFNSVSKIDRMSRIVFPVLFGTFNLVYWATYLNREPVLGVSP
T1 sequence (P28472 26-473): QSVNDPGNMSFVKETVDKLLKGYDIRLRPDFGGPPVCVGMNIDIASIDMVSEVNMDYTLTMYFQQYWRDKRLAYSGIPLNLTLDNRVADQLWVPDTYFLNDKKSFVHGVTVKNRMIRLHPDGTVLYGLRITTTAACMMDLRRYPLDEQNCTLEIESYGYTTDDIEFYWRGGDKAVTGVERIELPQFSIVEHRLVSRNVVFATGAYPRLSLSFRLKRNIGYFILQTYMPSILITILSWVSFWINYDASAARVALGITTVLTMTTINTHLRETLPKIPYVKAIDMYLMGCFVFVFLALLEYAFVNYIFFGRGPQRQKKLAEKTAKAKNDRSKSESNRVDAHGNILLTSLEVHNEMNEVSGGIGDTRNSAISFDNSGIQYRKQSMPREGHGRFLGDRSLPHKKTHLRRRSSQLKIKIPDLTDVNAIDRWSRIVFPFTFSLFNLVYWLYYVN
T1 sequence (P18507 40-475): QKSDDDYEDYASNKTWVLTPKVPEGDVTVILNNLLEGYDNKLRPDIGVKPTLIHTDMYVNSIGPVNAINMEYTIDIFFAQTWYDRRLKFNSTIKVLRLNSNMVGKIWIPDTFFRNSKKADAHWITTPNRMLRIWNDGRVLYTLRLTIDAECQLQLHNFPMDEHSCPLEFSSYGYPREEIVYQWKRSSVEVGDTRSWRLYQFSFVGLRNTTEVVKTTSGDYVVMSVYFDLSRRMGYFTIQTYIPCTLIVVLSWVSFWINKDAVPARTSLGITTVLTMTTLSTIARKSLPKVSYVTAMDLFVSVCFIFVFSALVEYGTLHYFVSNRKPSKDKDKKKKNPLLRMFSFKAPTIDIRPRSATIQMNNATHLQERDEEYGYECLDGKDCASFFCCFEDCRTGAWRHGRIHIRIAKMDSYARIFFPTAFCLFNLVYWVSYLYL
Method: (§1) Functional assays of all GABAA, NMDA (GluN2A-GluN2D) and AMPA (GluA2) receptor subunits were performed by SB Drug Discovery as a part of their CNS discovery panel using FLIPR technology. Briefly, receptor-expressing HEK 293 cell lines were incubated in a red membrane potential dye in HEPES:HBSS pH 7.4 buffer and the fluorescence (λex: 488, λex: 510-570) was monitored over time as the test compounds and/or reference compounds were added to the solution. In agonist assay, only test compounds were added. In positive allosteric modulator assay, cells were preincubated with test compounds and then low concentration (approximately EC20) of an appropriate agonist was added. In antagonist assay, cells were preincubated with test compounds and then high concentration (approximately EC80) of an appropriate agonist was added. For GABAA assays, GABA was used as the agonist, picrotoxin was used as the reference antagonist and allopregnanolone was used as the reference positive allosteric modulator (PAM). For NMDA assays, a mixture of glutamate, glycine and CaCl2 was used as the agonist, MK801 was the reference antagonist and pregnenolone sulfate or GNE 9278 were used as reference PAMs. For AMPA assays, glutamate was used as the agonist, CNQX was the reference antagonist and cyclothiazide was used as the reference PAM. All compounds were tested at 7 concentration points in triplicate and EC50/IC50 was determined where applicable. Functional GABAB assay was performed by Eurofins Discovery (Cerep) using Ca^2+-dependent fluorimetry in RBL cells expressing human GABAB (B1/B2) receptor. All compounds were tested at a single concentration of 100 uM in triplicate.
(§2) All receptor assays were performed exactly as described in Example 1. Functional assays of all GABAA, NMDA (GluN2A-GluN2D) and AMPA (GluA2) receptor subunits were performed by SB Drug Discovery as a part of their CNS discovery panel using FLIPR technology. All compounds were tested at 7 concentrations in triplicate and EC50/IC50 was determined where applicable. Functional GABAB assay was performed by Eurofins Discovery (Cerep) using Ca^2+-dependent fluorimetry in RBL cells expressing human GABAB (B1/B2) receptor. All compounds were tested at a single concentration of 100 uM in triplicate. Nonspecific AMPA, kainate and NMDA binding assays were performed by Eurofins Discovery (Cerep) using rat cerebral cortex membranes and radiolabeled [^3H]AMPA, [^3H]kainic acid and [^3H]CGP 39653, respectively. All compounds were tested at a single concentration of 100 uM in triplicate. mGluR1, mGluR2, mGluR5 and GABAB binding assays were performed by Eurofins Discovery. All compounds were tested at a single concentration of 100 uM in triplicate.

GABAA α6β1γ2 = GABAA α6β1γ2 (Homo sapiens, UniProt P18505+Q16445); assay: as above; format: cell-based; conditions: top concentration 1 mM, read-out: EC50, functional agonist receptor assay
GABAA α6β1γ2, sequence (Q16445 20-453): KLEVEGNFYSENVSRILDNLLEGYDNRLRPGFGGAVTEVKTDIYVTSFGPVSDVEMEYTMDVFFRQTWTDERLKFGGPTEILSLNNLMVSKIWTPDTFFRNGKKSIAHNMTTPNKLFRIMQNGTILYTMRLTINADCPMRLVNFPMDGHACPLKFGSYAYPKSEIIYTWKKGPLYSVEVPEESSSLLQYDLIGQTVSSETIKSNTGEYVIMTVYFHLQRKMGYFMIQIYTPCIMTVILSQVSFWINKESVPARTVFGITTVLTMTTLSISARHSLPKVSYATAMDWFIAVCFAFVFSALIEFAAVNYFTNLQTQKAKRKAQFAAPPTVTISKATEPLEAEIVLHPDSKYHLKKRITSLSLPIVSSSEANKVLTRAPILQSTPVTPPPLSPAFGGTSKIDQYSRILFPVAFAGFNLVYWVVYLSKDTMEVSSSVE
GABAA α6β1γ2, sequence (P18505 26-474): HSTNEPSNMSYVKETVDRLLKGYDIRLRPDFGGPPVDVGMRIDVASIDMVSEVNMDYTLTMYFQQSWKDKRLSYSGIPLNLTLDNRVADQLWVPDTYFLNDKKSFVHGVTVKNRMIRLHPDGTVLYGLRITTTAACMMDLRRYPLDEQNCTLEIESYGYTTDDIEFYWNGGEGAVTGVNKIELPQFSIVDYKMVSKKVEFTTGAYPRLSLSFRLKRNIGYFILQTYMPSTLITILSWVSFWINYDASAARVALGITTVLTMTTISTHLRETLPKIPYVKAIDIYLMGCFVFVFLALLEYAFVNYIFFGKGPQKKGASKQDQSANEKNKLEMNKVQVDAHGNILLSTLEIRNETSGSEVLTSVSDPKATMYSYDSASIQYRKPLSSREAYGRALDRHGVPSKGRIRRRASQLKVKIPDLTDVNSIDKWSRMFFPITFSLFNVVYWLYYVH
GABAA α6β1γ2, sequence (P18507 40-475 partner): as the sequence (P18507 40-475) above
Method: as §1, §2

GABAA α2β2γ2 = target: T2, GABAA α2β2γ2 (Homo sapiens, UniProt P18507+P47869+P47870); assay: as above; format: cell-based; conditions: top concentration 1 mM, read-out: EC50, functional agonist receptor assay
T2 construct: host or cells: HEK 293 (stably expressing)
T2 sequence (P47869 29-451): as the sequence (P47869 29-451) above
T2 sequence (P47870 25-512 limits assumed): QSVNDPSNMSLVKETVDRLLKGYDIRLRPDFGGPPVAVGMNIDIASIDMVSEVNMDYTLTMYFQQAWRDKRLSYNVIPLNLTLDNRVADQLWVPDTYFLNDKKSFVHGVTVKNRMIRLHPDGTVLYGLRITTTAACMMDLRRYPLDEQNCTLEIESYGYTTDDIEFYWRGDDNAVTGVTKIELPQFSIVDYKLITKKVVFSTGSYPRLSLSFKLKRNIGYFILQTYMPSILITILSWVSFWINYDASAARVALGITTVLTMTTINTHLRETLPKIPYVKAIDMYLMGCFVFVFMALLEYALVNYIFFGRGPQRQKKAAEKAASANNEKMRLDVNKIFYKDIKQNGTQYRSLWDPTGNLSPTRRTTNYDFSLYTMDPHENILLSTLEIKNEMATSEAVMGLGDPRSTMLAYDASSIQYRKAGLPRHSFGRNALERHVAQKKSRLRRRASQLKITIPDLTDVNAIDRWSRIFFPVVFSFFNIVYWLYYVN
T2 sequence (P18507 40-475): as the sequence (P18507 40-475) above
Method: as §1, §2

GABAA α3β1γ2 = target: T3, GABAA α3β1γ2 (Homo sapiens, UniProt P18505+P18507+P34903); assay: as above; format: cell-based; conditions: top concentration 1 mM, read-out: EC50, functional agonist receptor assay
T3 construct: host or cells: HEK 293 (stably expressing)
T3 sequence (P34903 29-492): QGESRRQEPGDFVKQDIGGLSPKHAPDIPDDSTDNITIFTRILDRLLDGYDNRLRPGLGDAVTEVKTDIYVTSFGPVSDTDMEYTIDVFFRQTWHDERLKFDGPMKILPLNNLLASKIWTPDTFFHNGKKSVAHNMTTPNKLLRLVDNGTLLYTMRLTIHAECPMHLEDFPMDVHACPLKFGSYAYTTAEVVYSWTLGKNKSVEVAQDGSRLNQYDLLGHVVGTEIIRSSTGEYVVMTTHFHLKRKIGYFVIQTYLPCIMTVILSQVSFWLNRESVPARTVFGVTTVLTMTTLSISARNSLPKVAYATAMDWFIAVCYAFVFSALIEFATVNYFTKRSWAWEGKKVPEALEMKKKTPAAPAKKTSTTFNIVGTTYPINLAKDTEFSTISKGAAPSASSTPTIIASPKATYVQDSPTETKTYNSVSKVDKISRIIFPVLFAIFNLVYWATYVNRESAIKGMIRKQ
T3 sequence (P18505 26-474): as the sequence (P18505 26-474) above
T3 sequence (P18507 40-475): as the sequence (P18507 40-475) above
Method: as §1, §2

GABAA α4β3γ2 = target: T4, GABAA α4β3γ2 (Homo sapiens, UniProt P18507+P28472+P48169); assay: as above; format: cell-based; conditions: top concentration 1 mM, read-out: EC50, functional agonist receptor assay
T4 construct: host or cells: HEK 293 (stably expressing)
T4 sequence (P48169 36-554): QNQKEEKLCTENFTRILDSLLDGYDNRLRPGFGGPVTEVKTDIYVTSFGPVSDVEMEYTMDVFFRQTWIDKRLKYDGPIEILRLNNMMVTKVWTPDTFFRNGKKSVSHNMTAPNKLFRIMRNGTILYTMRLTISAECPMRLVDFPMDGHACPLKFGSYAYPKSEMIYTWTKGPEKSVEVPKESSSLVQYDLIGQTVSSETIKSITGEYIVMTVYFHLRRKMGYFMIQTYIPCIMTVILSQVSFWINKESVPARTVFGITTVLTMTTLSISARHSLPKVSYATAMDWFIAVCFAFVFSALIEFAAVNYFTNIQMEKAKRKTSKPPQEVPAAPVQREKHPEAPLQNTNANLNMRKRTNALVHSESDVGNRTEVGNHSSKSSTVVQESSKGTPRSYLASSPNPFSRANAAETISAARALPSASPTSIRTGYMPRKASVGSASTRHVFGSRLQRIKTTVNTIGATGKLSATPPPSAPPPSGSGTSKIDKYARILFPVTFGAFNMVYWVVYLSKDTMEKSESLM
T4 sequence (P28472 26-473): as the sequence (P28472 26-473) above
T4 sequence (P18507 40-475): as the sequence (P18507 40-475) above
Method: as §1, §2

GABAA α6β3γ2 = GABAA α6β3γ2 (Homo sapiens, UniProt P28472+Q16445); assay: as above; format: cell-based; conditions: top concentration 1 mM, read-out: EC50, functional agonist receptor assay
GABAA α6β3γ2, sequence (Q16445 20-453): as the sequence (Q16445 20-453) above
GABAA α6β3γ2, sequence (P28472 26-473): as the sequence (P28472 26-473) above
GABAA α6β3γ2, sequence (P18507 40-475 partner): as the sequence (P18507 40-475) above
Method: as §1, §2

GABAA α4β2γ2 = target: T5, GABAA α4β2γ2 (Homo sapiens, UniProt P18507+P47870+P48169); assay: as above; format: cell-based; conditions: top concentration 1 mM, read-out: EC50, functional agonist receptor assay
T5 construct: host or cells: HEK 293 (stably expressing)
T5 sequence (P48169 36-554): as the sequence (P48169 36-554) above
T5 sequence (P47870 25-512 limits assumed): as the sequence (P47870 25-512 limits assumed) above
T5 sequence (P18507 40-475): as the sequence (P18507 40-475) above
Method: as §1, §2

GABAA α3β3γ2 = target: T6, GABAA α3β3γ2 (Homo sapiens, UniProt P18507+P28472+P34903); assay: as above; format: cell-based; conditions: top concentration 1 mM; for EC50: read-out: EC50, functional agonist receptor assay
T6 construct: host or cells: HEK 293 (stably expressing)
T6 sequence (P34903 29-492): as the sequence (P34903 29-492) above
T6 sequence (P28472 26-473): as the sequence (P28472 26-473) above
T6 sequence (P18507 40-475): as the sequence (P18507 40-475) above
Method: as §1, §2

C57Bl/6 mice = format: in vivo; conditions: for distance moved in the novel cage: single 100, 300, or 900 mg/kg IP, dose- and time-dependent
Method: Dosing: (R)-2MeGlu (30, 100, 300, or 900 mg/kg), (S)-2MeGlu (30, 100, 300, or 900 mg/kg), rac-2MeGln (30, 100, 300, or 900 mg/kg) and vehicle (PBS) were administered at 10 ml/kg IP dosing volume. Three mice were dosed once with the assigned drug (100, 300, or 900 mg/kg) or vehicle and immediately placed in a new cage for novel cage observation. Subsequently, six mice were dosed once with the assigned drug (30 or 100 mg/kg) or vehicle and tested by SHIRPA, activity chamber, and then hot plate tests.
The mouse was dosed and immediately placed in the center of a clean, Innovive disposable rat cage with bedding (dimensions: 17″L×13.4″W×7.8″H) and allowed to move freely while being tracked automatically. Mice were monitored with Ethovision XT tracking software for the distance moved and average velocity during the 60-minute trial. They were returned to their home cage after the test. A new cage was used for each mouse.
Exploratory behavioral tests were performed exactly as previously described by us using 2-month-old C57Bl/6 male mice, Example 1. First, we assessed safety and tolerability of acute exposure to 4APA enantiomers in 22 mice by novel cage observation at 100, 300, or 900 mg/kg IP compared to vehicle (PBS) IP (n=3 or 4 mice per group without sample calculation, based on our previous study. Next, we evaluated 24 drug naïve mice with a 23-measure battery of neurologic dysfunction in mice (SHIRPA) (Rogers et al., 2001), automated activity chamber assessment, and hot plate latency acutely following 30 or 100 mg/kg IP compared to vehicle IP (n=4 or 5 mice per group). No exclusion criteria were predetermined and no randomization was performed to allocate subjects in the study.

Structure (SMILES)	% of radioligand binding inhibition (AMPA nonspecific) [%]	EC50 (GABAA α2β3γ2) [µM]	EC50 (GABAA α6β1γ2) [µM]	EC50 (GABAA α2β2γ2) [µM]	EC50 (GABAA α3β1γ2) [µM]	EC50 (GABAA α4β3γ2) [µM]	EC50 (GABAA α6β3γ2) [µM]	EC50 (GABAA α4β2γ2) [µM]	EC50 (GABAA α3β3γ2) [µM]	mortality after single dose (C57Bl/6 mice; mouse, in vivo)	distance moved in the novel cage (C57Bl/6 mice)	IC50 (GABAA α3β3γ2; read-out: IC50, functional antagonist receptor assay) [µM]
C[C@@](N)(CCC(=O)O)C(=O)O [(R)-2MeGlu, (R)-2-methylglutamic acid]	15	622	772	660	742	> 1000	> 1000	1250	959	one mouse died	significantly decreased	
C[C@](N)(CCC(=O)O)C(=O)O [(S)-2MeGlu, (S)-2-methylglutamic acid]	12	342	280	530	782	> 1000	998	1020	725		significantly decreased	978
